# According to ChEMBL document CHEMBL1201862, “PubChem BioAssay data set” (2004):
#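 The compound was tested at five concentrations on cells cultured in 96-well plates, with a 48-hour exposure period. GI50: concentration for 50% inhibition of growth.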 The source made the active and inactive calls. No stated cut-off is given here; in the data, active = GI50 up to about 1.1 µM and inactive = higher.
# Tests used:
# Assay in all cases: NCI-60 cell line screen, 48 h
# [1] = test system: NCI-H23
# [2] = test system: SF-268
# [3] = test system: SNB-19
# [4] = test system: DMS-114
# [5] = test system: RXF 631
# [6] = test system: HL-60
# [7] = test system: SNB-75
# [8] = test system: 786-0
# [9] = test system: HT-29
# [10] = test system: HOP-92
# [11] = test system: SN12C
# [12] = test system: RPMI-8226
# [13] = test system: A549
# [14] = test system: MOLT-4
# [15] = test system: HOP-62
# [16] = test system: UACC-62
# [17] = test system: SW-620
# [18] = test system: OVCAR-4
# [19] = test system: OVCAR-5
# [20] = test system: SF-295
# [21] = test system: SF-539
# [22] = test system: CAKI-1
# [23] = test system: M14
# [24] = test system: U-251
# [25] = test system: KM12
# [26] = test system: IGROV-1
# [27] = test system: HCT-116
# [28] = test system: RXF 393
# [29] = test system: HCT-15
# [30] = test system: OVCAR-3
# [31] = test system: Malme-3M
# [32] = test system: KM-20L2
# [33] = test system: NCI-H226
# [34] = test system: EKVX
# [35] = test system: DMS-273
# [36] = test system: HOP-18
# [37] = test system: SK-MEL-28
# [38] = test system: LOX IMVI
# [39] = test system: LXFL 529
# [40] = test system: TK-10
# [41] = test system: K562
# [42] = test system: HCC 2998
# [43] = test system: XF498
# [44] = test system: UACC-257
# [45] = test system: SK-MEL-2
# [46] = test system: ACHN
# [47] = test system: DLD-1
# [48] = test system: UO-31
# [49] = test system: SK-MEL-5
# [50] = test system: M19-MEL
# [51] = test system: NCI-H460
# [52] = test system: SNB-78
# [53] = test system: A498
# [54] = test system: OVCAR-8
smiles,measurement,setting,value
CC(C)=Cc1cc(C(=O)Nc2ccc(Cl)c(Cl)c2)nc(N)n1,GI50,[1],> 100 µM (inactive)
same,GI50,[2],> 100 µM (inactive)
same,GI50,[3],> 100 µM (inactive)
same,GI50,[4],> 100 µM (inactive)
same,GI50,[5],> 100 µM (inactive)
same,GI50,[6],> 100 µM (inactive)
same,GI50,[7],> 100 µM (inactive)
same,GI50,[8],> 100 µM (inactive)
same,GI50,[9],> 100 µM (inactive)
same,GI50,[10],> 100 µM (inactive)
same,GI50,[11],> 100 µM (inactive)
same,GI50,[12],> 100 µM (inactive)
same,GI50,[13],> 100 µM (inactive)
same,GI50,[14],> 100 µM (inactive)
same,GI50,[15],> 100 µM (inactive)
same,GI50,[16],> 100 µM (inactive)
same,GI50,[17],> 100 µM (inactive)
same,GI50,[18],> 100 µM (inactive)
same,GI50,[19],> 100 µM (inactive)
same,GI50,[20],> 100 µM (inactive)
same,GI50,[21],> 100 µM (inactive)
same,GI50,[22],> 100 µM (inactive)
same,GI50,[23],> 100 µM (inactive)
same,GI50,[24],> 100 µM (inactive)
same,GI50,[25],> 100 µM (inactive)
same,GI50,[26],> 100 µM (inactive)
same,GI50,[27],> 100 µM (inactive)
same,GI50,[28],> 100 µM (inactive)
same,GI50,[29],> 100 µM
same,GI50,[30],> 100 µM (inactive)
same,GI50,[31],> 100 µM (inactive)
same,GI50,[32],> 100 µM (inactive)
same,GI50,[33],> 100 µM (inactive)
same,GI50,[34],> 100 µM (inactive)
same,GI50,[35],> 100 µM (inactive)
same,GI50,[36],78.3 µM (inactive)
same,GI50,[37],> 100 µM (inactive)
same,GI50,[38],> 100 µM (inactive)
same,GI50,[39],> 100 µM (inactive)
same,GI50,[40],> 100 µM (inactive)
same,GI50,[41],> 100 µM (inactive)
same,GI50,[42],> 100 µM (inactive)
same,GI50,[43],> 100 µM (inactive)
same,GI50,[44],> 100 µM (inactive)
same,GI50,[45],> 100 µM (inactive)
same,GI50,[46],> 100 µM (inactive)
same,GI50,[47],> 100 µM (inactive)
same,GI50,[48],> 100 µM (inactive)
same,GI50,[49],> 100 µM (inactive)
same,GI50,[50],> 100 µM (inactive)
same,GI50,[51],> 100 µM (inactive)
same,GI50,[52],> 100 µM (inactive)
same,GI50,[53],> 100 µM (inactive)
same,GI50,[54],> 100 µM (inactive)
